Read-outs that look alike come from different tables or passages of the source.
How the values were obtained:
Assay type in all cases: biochemical
GPX1 = molecular target: T1, GPX1 (Homo sapiens, UniProt P07203); assay: GR-coupled GPX1 activity assay (NADPH fluorescence, CHP substrate); settings: for inhibition of GPX1: Fig. 9 pan-selenoprotein inhibitors
T1 construct: made in house; host or cells: E. coli
T1 sequence (P07203 1-203): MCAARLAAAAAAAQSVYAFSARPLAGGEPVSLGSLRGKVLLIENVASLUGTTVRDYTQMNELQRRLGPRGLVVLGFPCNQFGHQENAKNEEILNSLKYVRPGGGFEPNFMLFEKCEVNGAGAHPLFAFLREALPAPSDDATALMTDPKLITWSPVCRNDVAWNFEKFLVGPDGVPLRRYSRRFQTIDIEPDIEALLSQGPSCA
Procedure: (§1) The compound plates were prepared as described previously. Purified recombinant human GPX1, GPX2, GPX4, GR, and TXNRD1 were produced and purified as previously reported [[48], [49], [50]]. As production of GPX2 was not optimized at the onset of screening, only GPX1 and GPX4 underwent library screening, and GPX2 was used as a follow-up.
(§2) Follow-up and orthogonal assays were run in quadruplicate unless otherwise stated. Assay schemes are illustrated in Fig. 1.
To measure GPX activity, assays were performed in 1536-well format in black medium-binding solid-bottom plates (Greiner). These assay conditions were optimized for high-throughput screening from an assay first described by Paglia and Valentine. GPX activity is measured indirectly by coupling the reaction with GR whereby GPX reduces hydroperoxide by oxidizing two GSH to GSSG and the oxidized glutathione is recycled to its reduced state by GR and NADPH (Fig. 1B). The rate of consumption of NADPH is directly proportional to the activity of GPX and can be measured by the decrease in fluorescence at 340 nm/450 nm.
First, 3 μL of enzyme in TES assay buffer (50 mM Tris-HCl, 2 mM EDTA (pH 7.5), 150 mM NaCl with enzyme [10 nM GPX1, 200 nM GPX4 ] and BSA [0.01%]) was added to columns 3–48 of 1536-well plates using a BioRAPTR Flying Reagent Dispenser (Let's Go Robotics (LGR), Carlsbad, CA). A no-enzyme control (0.01% BSA in TES assay buffer) was added to columns 1–2. Compounds (25 nL, library and DMSO controls) were added to each well with a pin tool (Kalypsys), and the plates were incubated for 30 min at room temperature before 1 μL of master mix (100 nM GR, 1 mM GSH, 0.5 mM NADPH in TES buffer) was added. 1 μL of cumene hydroperoxide (CHP) ([0.5 mM] in 50% EtOH) was then added within 5 min to initiate the reaction. Fluorescence at 340/450 nm was measured using a ViewLux multimodal detector (PerkinElmer, Waltham, MA) at initial t = 0 and endpoint t = 15 min (GPX1) or t = 20 min (GPX4).
Follow-up confirmation assays were also run in 96-well format using medium binding clear 96-well SpectraPlate microplates (PerkinElmer) and NADPH absorbance at 340 nm was measured every 30 s for 30 min using an Infinite® M Nano (Tecan).
(§3) Percent activity was determined by first calculating delta RFU (decrease in fluorescence between t = 0 and t = 20/30 min in primary GPX, GR counter-screen, and TXNRD1 assays, or increase in fluorescence between t = 0 and t = 20 min in the Monobromobimane GPX endpoint assay), and normalizing enzyme activity using median delta RFU values for DMSO-treated enzyme control, and DMSO-treated no-enzyme controls.
(§4) Compound inhibitory activity in the qHTS assays was determined by plotting dose-response data for each sample and fitting with a four-parameter logistic fit to assess IC50 values, efficacy (maximal response), and AUC (area under the curve), as previously described. Hits were classified by the quality of the concentration-response curves (CRC). Curve classes −1.1 and −1.2 being the highest-confidence actives with complete CRCs and classes −2.1 and −2.2 being lower-confidence actives with incomplete CRCs.

human GPX2 = molecular target: T2, human GPX2 (Homo sapiens, UniProt P18283); assay: GPX2 activity assay (follow-up isoform specificity); settings: for inhibition of GPX2: Fig. 9 pan-selenoprotein inhibitors
T2 construct: made in house
T2 sequence (P18283 1-190): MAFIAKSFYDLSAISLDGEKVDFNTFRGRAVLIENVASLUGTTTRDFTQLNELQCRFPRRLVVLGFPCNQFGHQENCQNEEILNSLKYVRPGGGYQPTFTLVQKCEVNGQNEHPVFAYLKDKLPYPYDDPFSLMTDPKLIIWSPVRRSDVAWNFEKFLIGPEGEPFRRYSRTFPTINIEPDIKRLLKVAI
Procedure: as §1, §2
Previous work has shown similarities in the substrate specificities of GPX1 and GPX2, and a more unique substrate profile of GPX4 [8].
The GPX2 isoform of human selenoprotein GPXs is found in epithelial cells and has similar substrate specificity with GPX1, but not as much with GPX4 [8]. Additionally, GPX1 and GPX2 both form homotetramers and share similarities in structural homology, although GPX2 has a much slower turnover rate.

human TXNRD1 = molecular target: T3, human TXNRD1 (Homo sapiens, UniProt Q16881); assay: Thioredoxin reductase 1 (TXNRD1) inhibition assay (selenite reduction); settings: for inhibition of TXNRD1: Fig. 9 pan-selenoprotein inhibitors
T3 construct: made in house
T3 sequence (Q16881 1-499 isoform Q16881-5): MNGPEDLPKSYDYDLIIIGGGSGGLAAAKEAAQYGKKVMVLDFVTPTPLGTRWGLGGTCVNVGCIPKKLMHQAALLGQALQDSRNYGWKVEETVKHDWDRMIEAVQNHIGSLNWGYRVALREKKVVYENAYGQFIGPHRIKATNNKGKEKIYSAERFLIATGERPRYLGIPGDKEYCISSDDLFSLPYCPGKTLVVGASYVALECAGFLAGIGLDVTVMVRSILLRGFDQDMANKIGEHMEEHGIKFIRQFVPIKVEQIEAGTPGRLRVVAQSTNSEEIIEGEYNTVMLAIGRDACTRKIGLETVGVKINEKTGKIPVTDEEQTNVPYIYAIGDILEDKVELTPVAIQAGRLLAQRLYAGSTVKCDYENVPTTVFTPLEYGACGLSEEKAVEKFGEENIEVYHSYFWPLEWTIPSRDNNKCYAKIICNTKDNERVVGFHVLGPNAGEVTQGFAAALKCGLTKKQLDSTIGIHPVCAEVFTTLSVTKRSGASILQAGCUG
Procedure: as §1, §2
TXNRD1 activity was assessed using a modified 1536-well TXNRD1 inhibition assay, based upon TXNRD1-catalyzed selenite reduction as previously described (Fig. 1D). […] TE buffer was dispensed into column 1 and 2 as a no-enzyme control. Finally, 1 μL of sodium selenite in TE buffer was dispensed into each well for final concentrations of 90 nM hTXNRD1, 0.4 mM NADPH, and 0.4 mM sodium selenite. The plate was read in a Viewlux multimodal detector in kinetic mode and fluorescence at 340 nm/450 nm was measured every minute for 8 min.
as §3, §4

[1] = listed as 2,3-dimercaptopropanesulfonic acid

inhibition of GPX1 (GPX1)	inhibition of GPX1 (GPX1; [1])	inhibition of GPX2 (human GPX2)	inhibition of GPX2 (human GPX2; [1])	inhibition of TXNRD1 (human TXNRD1)	inhibition of TXNRD1 (human TXNRD1; [1])	SMILES	IC50 (GPX1; IC50 of resulting CRC, Table 2, read-out: IC50 GPx1)	IC50 (GPX1; assay validation, Fig. 2E, read-out: IC50, prior art GPX1 inhibitor activities in optimized assay)	IC50 (GPX1; compound present in the screening libraries (qHTS), read-out: IC50 GPX1, primary library screen)	IC50 (GPX1; initial tests comparing GR-coupled and mBBr assay formats, read-out: IC50 in the GR-coupled assay)	hit status in GPX1 qHTS (GPX1; primary library screen)	IC50 (human GPX2; IC50 of resulting CRC, Table 2)	IC50 (human TXNRD1; IC50 of resulting CRC, Table 2, read-out: IC50 TrxR1)
						CC(=O)OC[C@H]1O[C@@H]([S-])[C@H](OC(C)=O)[C@@H](OC(C)=O)[C@@H]1OC(C)=O.CCP(CC)CC.[Au+] [Auranofin]	4.6 µM	4.84 µM	2.26 µM	1.94 µM	high-quality active hit for GPX1 in all three	2.1 µM	19 µM
inhibited all tested selenoproteins	inhibited all selenoproteins	inhibited all tested selenoproteins	inhibited all selenoproteins	inhibited all tested selenoproteins	inhibited all selenoproteins	O=S(=O)(O)CC(S)CS (stereo not shown) [2,3-dimercaptopropanesulfonate]							
